Assays:
[1] = Dynamic light scattering (DLS) analysis of dendrons; format: physicochemical; settings: sample concentration 1 mg/mL, 4° C.
Method: PEGtides were purified on an Alliance reverse-phase high-performance liquid chromatography (RP-HPLC) system (Waters, Mass.) using a Symmetry C18 column (4.6×150 mm, 100 Å, particle size 5 μm). Following mobile phase was used: solvent A, 0.05% aqueous TFA; and solvent B, acetonitrile containing 0.05% TFA. A linear gradient of 95% to 70% of A was applied for 60 min at a flow rate of 1 mL/min. The UV absorptions were monitored at 220 and 250 nm, whereas fluorescence detector was set with excitation and emission wavelengths of 492 and 518 nm, respectively. The dendrons and there derivatives were quantified on a F-7000 fluorescence spectrophotometer (HITACHI, Japan). Mass spectra were acquired on an ABI-MDS SCIEX 4800 matrix-assisted laser desorption/ionisation-time of flight (MALDI-TOF/TOF) mass spectrometer (AB Sciex, Foster City, Calif.). Sample solutions (2 μL) were mixed with matrix solution (20 μL, 20 mg/mL sinapinic acid in 50% aqueous acetonitrile containing 0.1% TFA). This mixture (1 μL) was spotted onto sample holder and dried under a gentle stream of argon at room temperature. All spectra were recorded in positive mode using a linear acquisition method. The dynamic light scattering (DLS) experiments were performed on a Wyatt Dynapro Titan instrument (Wyatt Technology, Santa Barbara, Calif.) with sample concentration of 1 mg/mL. […]

[2] = Cell viability MTT assay; format: cell-based; settings: mouse, J774.E murine macrophage cells; 40 nM in HBSS for 2 hours; mean±standard deviation (n=6); read-out: cell relative viability (MTT)
Method: (1) Prepared MTT solution in PBS (pH 7.4) with final concentration of 5 mg/mL.
(2) Cultured J774.E muring macrophage cells with G3.0-Mannose, G3.0 and PAMAM G1.0, with each concentration of 40 nM, in HBSS for 2 hours. 6 replicates were applied. (n=6).
(3) Aspirated off the culture medium and washed with DPBS for three times for each well.
(4) 100 μL of HBSS and 25 μL of MIT solution were added to each well. Placed the plate in incubator at 37° C. overnight.
(5) Aspirated off the HBSS/MTT solution. Added 200 μL of DMSO for dissolving the crystals.
(6) Transferred to plate reader and measure the absorption at 570 nm.

[3] = test system: J774.E murine macrophage cells; assay: Quantitative macrophage uptake of dendrons (5-FAM fluorescence of cell lysate), with mannan inhibition; format: cell-based
Method: (§1) J774.E murine macrophage cells were grown as attached cells in a CO2 water-jacketed incubator (Form a Scientific Inc., Marietta, Ohio) with a humidified 5% CO2 atmosphere at 37° C. The cells were maintained in RPMI-1640 (GIBCO) containing 10% fetal bovine serum (FBS), 100 U/mL penicillin, and 100 μg/mL streptomycin/mL. The cells were seeded two days before experiment to 24-well plates at 0.5×10^5 cells/well for quantitative uptake measurement or to chambered coverglass (LAB-TEK II) at 1×10^5 cell/chamber for confocal microscopy. Cells were incubated with G3.0-Mannose (40 nM) in HBSS at 37° C. for 1 hr. For confocal microscopy, the incubation included the additional 0.16 mg/mL of the general endocytosis marker rhodamine B-labeled dextran (10,000 MW) and the nuclear dye DAPI. For Mannan inhibition studies, cells were pre-incubated with mannan (10 mg/mL) for 1 hr, followed by incubation with G3.0-Mannose, with or without rhodamine B-dextran/DAPI plus 10 mg/mL of mannan. After incubation, the unbound molecules were washed thrice using cold DPBS buffer. PEGtide dendron G3.0 (40 nM) (without mannose) was used as a negative control of mannose receptor-mediated cellular uptake.
(§2) In quantitative uptake experiments, the washed cells were lysed in wells overnight with 150 μL of 1 N NaOH solution and neutralized the next day with 150 μL of 1 N HCl solution, resulting in 300 μL of cell lysate/well. 250 μL of cell lysate was transferred to a well of a 96-well plate for 5-FAM fluorescence measurement on Tecan GENIOS fluorescent plate reader (Phenix Research Products, Hayward, Calif.). The total cell-associated fluorescence reading was converted into total cell-associated dendron amount using a separately established dendron's fluorescence standard curve. A small fraction of the lysate (about 50 μL, depending on cell density plated) was used to determine total cellular protein/well by Bradford Protein Assay. The total cellular protein/well was used to normalize the dendron amount/well to correct well-to-well variation in cell mass.

[4] = test system: J774.E murine macrophage cells; assay: Confocal microscopy of dendron uptake; format: cell-based; settings: 40 nM, 1 hr, with rhodamine B-labeled dextran and DAPI
Method: as §1, with “For Mannan inhibition studies, cells were pre-incubated with mannan (10 mg/mL) for 1 hr, followed by incubation with G3.0-Mannose, with or without rhodamine B-dextran/DAPI plus 10 mg/mL of mannan. After incubation, the unbound molecules were washed thrice using cold DPBS buffer. PEGtide dendron G3.0 (40 nM) (without mannose) was used as a negative control of mannose receptor-mediated cellular uptake.” left out
as §2, with “A small fraction of the lysate (about 50 μL, depending on cell density plated) was used to determine total cellular protein/well by Bradford Protein Assay. The total cellular protein/well was used to normalize the dendron amount/well to correct well-to-well variation in cell mass.” left out

O=C(O)CCNC(=O)[C@H](CCCCNC(=O)c1ccc2c(c1)C(=O)OC21c2ccc(O)cc2Oc2cc(O)ccc21)NC(=O)CCOCCOCCOCCOCCOCCOCCNC(=O)[C@H](CCCCNC(=O)CCNC(=O)CCOCCOCCOCCOCCOCCOCCNC(=O)[C@H](CCCCNC(=O)CCNC(=O)CCOCCOCCOCCOCCOCCOCCNC(=O)[C@H](CCCCNC(=O)CCNC(=O)CCOCCOCCOCCOCCOCCOCCNC(=S)Nc1ccc(O[C@H]2O[C@H](CO)[C@@H](O)[C@H](O)[C@@H]2O)cc1)NC(=O)CCNC(=O)CCOCCOCCOCCOCCOCCOCCNC(=S)Nc1ccc(O[C@H]2O[C@H](CO)[C@@H](O)[C@H](O)[C@@H]2O)cc1)NC(=O)CCNC(=O)CCOCCOCCOCCOCCOCCOCCNC(=O)[C@H](CCCCNC(=O)CCNC(=O)CCOCCOCCOCCOCCOCCOCCNC(=S)Nc1ccc(O[C@H]2O[C@H](CO)[C@@H](O)[C@H](O)[C@@H]2O)cc1)NC(=O)CCNC(=O)CCOCCOCCOCCOCCOCCOCCNC(=S)Nc1ccc(O[C@H]2O[C@H](CO)[C@@H](O)[C@H](O)[C@@H]2O)cc1)NC(=O)CCNC(=O)CCOCCOCCOCCOCCOCCOCCNC(=O)[C@H](CCCCNC(=O)CCNC(=O)CCOCCOCCOCCOCCOCCOCCNC(=O)[C@H](CCCCNC(=O)CCNC(=O)CCOCCOCCOCCOCCOCCOCCNC(=S)Nc1ccc(O[C@H]2O[C@H](CO)[C@@H](O)[C@H](O)[C@@H]2O)cc1)NC(=O)CCNC(=O)CCOCCOCCOCCOCCOCCOCCNC(=S)Nc1ccc(O[C@H]2O[C@H](CO)[C@@H](O)[C@H](O)[C@@H]2O)cc1)NC(=O)CCNC(=O)CCOCCOCCOCCOCCOCCOCCNC(=O)[C@H](CCCCNC(=O)CCNC(=O)CCOCCOCCOCCOCCOCCOCCNC(=S)Nc1ccc(O[C@H]2O[C@H](CO)[C@@H](O)[C@H](O)[C@@H]2O)cc1)NC(=O)CCNC(=O)CCOCCOCCOCCOCCOCCOCCNC(=S)Nc1ccc(O[C@H]2O[C@H](CO)[C@@H](O)[C@H](O)[C@@H]2O)cc1 [G3.0-Mannose]
hydrodynamic radius (DLS) [1]: 90.6 nm
viability at 2 h, 0.04 µM [2]: 96.4 ± 7.81%
quantitative uptake in macrophage ([3]; 40 nM in HBSS at 37° C. for 1 hr, normalized to total cellular protein): 699.6 ± 1.8 pmol/µg
specificity for mannose receptor (uptake vs non-mannosylated G3.0) ([3]; 40 nM, 1 hr): 53 fold
uptake in presence of mannan (mannan inhibition) ([3]; 40 nM, 1 hr, cells pre-incubated 1 hr and co-incubated with mannan 10 mg/mL): 7.5 ± 4.7 pmol/µg
intracellular green fluorescence (5-FAM), confocal microscopy [4]: prominent only in G3.0-Mannose treated cells

Reference: patent US9457099B2, “Polyethylene glycol-based dendrons” (RUTGERS, THE STATE UNIVERSITY OF NEW JERSEY, priority 2010, dated 2016)
